Test results: ChEMBL document CHEMBL5154876, “Design, synthesis and promising anti-tumor efficacy of novel imidazo[1,2-a]pyridine derivatives as potent autotaxin allosteric inhibitors” (Eur J Med Chem, 2022)
Activity calls are given as the source filed them. The rule behind the calls is not given here.

Assays:
RAW264.7 [1] = test: Induction of apoptosis in mouse RAW264.7 cells assessed as necrotic cells at 0.1 uM after 48 hrs by Annexin V-FITC/PI based flow cytometric analysis (RVB=0.26%); format: functional
MDA-MB-231 = test: Cytotoxicity against human MDA-MB-231 cells assessed as inhibition of cell growth incubated for 72 hrs by MTT assay; format: functional, cell-based; settings: MDA-MB-231, 72 h
[2] = Acute toxicity in C57BL/6J mouse assessed as secretion in eye corner at 5000 mg/kg measured after 14 days; format: organism-based; settings: in vivo, 336 h, time 14 day
MCF7 = test: Cytotoxicity against human MCF-7 cells assessed as inhibition of cell growth incubated for 72 hrs by MTT assay; format: functional, cell-based; settings: MCF7, 72 h
RAW264.7 [3] = test: Induction of apoptosis in mouse RAW264.7 cells assessed as apoptotic cells measured after 48 hrs by acridine orange/ethidium bromide staining based fluorescence microscopy; format: functional, cell-based; settings: dose 0.1-1 µM, DDE = dose-dependent effect
A549 = test: Cytotoxicity against human A549 cells assessed as inhibition of cell growth incubated for 72 hrs by MTT assay; format: functional, cell-based; settings: A549, 72 h
Hep 3B2 = test: Cytotoxicity against human Hep3B cells assessed as inhibition of cell growth incubated for 72 hrs by MTT assay; format: functional, cell-based
RAW264.7 [4] = test: Induction of cell cycle arrest in mouse RAW264.7 cells assessed as accumulation of cells in G2 phase at 0.1 uM incubated for 24 hrs by PI/RNase staining based flow cytometric analysis (RVB = 10.90%); format: functional
RAW264.7 [5] = test: Induction of apoptosis in mouse RAW264.7 cells assessed as viable cells at 0.5 uM after 48 hrs by Annexin V-FITC/PI based flow cytometric analysis (RVB=94.1%); format: functional; settings: read-out: Activity
RAW264.7 [6] = test: Antimigratory activity against mouse RAW264.7 cells assessed as decrease in cell migration rate measured upto 72 hrs by scratch wound healing assay; format: functional, cell-based; settings: DDE = dose-dependent effect
RAW264.7 [7] = test: Induction of apoptosis in mouse RAW264.7 cells assessed as viable cells at 0.25 uM after 48 hrs by Annexin V-FITC/PI based flow cytometric analysis (RVB=94.1%); format: functional; settings: read-out: Activity
RAW264.7 [8] = test: Induction of apoptosis in mouse RAW264.7 cells assessed as necrotic cells at 0.25 uM after 48 hrs by Annexin V-FITC/PI based flow cytometric analysis (RVB=0.26%); format: functional
RAW264.7 [9] = test: Induction of cell cycle arrest in mouse RAW264.7 cells assessed as accumulation of cells in S phase at 1 uM incubated for 24 hrs by PI/RNase staining based flow cytometric analysis (RVB = 34.03%); format: functional
RAW264.7 [10] = test: Induction of apoptosis in mouse RAW264.7 cells assessed as viable cells at 1 uM after 48 hrs by Annexin V-FITC/PI based flow cytometric analysis (RVB=94.1%); format: functional; settings: read-out: Activity
RAW264.7 [11] = test: Induction of apoptosis in mouse RAW264.7 cells assessed as late apoptotic cells at 1 uM after 48 hrs by Annexin V-FITC/PI based flow cytometric analysis (RVB=0.098%); format: functional
RAW264.7 [12] = test: Induction of cell cycle arrest in mouse RAW264.7 cells assessed as accumulation of cells in G1 phase at 0.1 uM incubated for 24 hrs by PI/RNase staining based flow cytometric analysis (RVB = 55.06%); format: functional
RAW264.7 [13] = test: Induction of apoptosis in mouse RAW264.7 cells assessed as early apoptotic cells at 0.25 uM after 48 hrs by Annexin V-FITC/PI based flow cytometric analysis (RVB=5.57%); format: functional
RAW264.7 [14] = test: Induction of apoptosis in mouse RAW264.7 cells assessed as necrotic cells at 0.5 uM after 48 hrs by Annexin V-FITC/PI based flow cytometric analysis (RVB=0.26%); format: functional
RAW264.7 [15] = test: Induction of cell cycle arrest in mouse RAW264.7 cells assessed as accumulation of cells in S phase at 0.1 uM incubated for 24 hrs by PI/RNase staining based flow cytometric analysis (RVB = 34.03%); format: functional
RAW264.7 [16] = test: Induction of cell cycle arrest in mouse RAW264.7 cells assessed as accumulation of cells in G1 phase at 0.5 uM incubated for 24 hrs by PI/RNase staining based flow cytometric analysis (RVB = 55.06%); format: functional
RAW264.7 [17] = test: Induction of apoptosis in mouse RAW264.7 cells assessed as early apoptotic cells at 0.5 uM after 48 hrs by Annexin V-FITC/PI based flow cytometric analysis (RVB=5.57%); format: functional
RAW264.7 [18] = test: Induction of apoptosis in mouse RAW264.7 cells assessed as late apoptotic cells at 0.25 uM after 48 hrs by Annexin V-FITC/PI based flow cytometric analysis (RVB=0.098%); format: functional
RAW264.7 [19] = test: Induction of cell cycle arrest in mouse RAW264.7 cells assessed as accumulation of cells in S phase at 0.5 uM incubated for 24 hrs by PI/RNase staining based flow cytometric analysis (RVB = 34.03%); format: functional
RAW264.7 [20] = test: Inhibition of colony formation in mouse RAW264.7 cells assessed as reduction in colony single area at 0.1 to 1 uM incubated for 72 hrs by crystal violet staining method; format: functional, cell-based; settings: dose 0.1-1 µM
RAW264.7 [21] = test: Induction of apoptosis in mouse RAW264.7 cells assessed as late apoptotic cells at 0.1 uM after 48 hrs by Annexin V-FITC/PI based flow cytometric analysis (RVB=0.098%); format: functional
RAW264.7 [22] = test: Induction of cell cycle arrest in mouse RAW264.7 cells assessed as accumulation of cells in G1 phase at 1 uM incubated for 24 hrs by PI/RNase staining based flow cytometric analysis (RVB = 55.06%); format: functional
RAW264.7 [23] = test: Induction of cell cycle arrest in mouse RAW264.7 cells assessed as accumulation of cells in G2 phase at 1 uM incubated for 24 hrs by PI/RNase staining based flow cytometric analysis (RVB = 10.90%); format: functional
RAW264.7 [24] = test: Inhibition of colony formation in mouse RAW264.7 cells incubated for 72 hrs by crystal violet staining method; format: functional, cell-based; settings: dose 0.1-1 µM, DDE = dose-dependent effect
NCI-H2228 = test: Cytotoxicity against human H2228 cells assessed as inhibition of cell growth incubated for 72 hrs by MTT assay; format: functional, cell-based; settings: NCI-H2228, 72 h
RAW264.7 [25] = test: Cytotoxicity against mouse RAW264.7 cells assessed as inhibition of cell growth incubated for 72 hrs by MTT assay; format: functional, cell-based; settings: RAW264.7, 72 h
Autotaxin = Autotaxin (Homo sapiens, UniProt Q13822); test: Negative allosteric modulation activity against human ATX using FS-3 as substrate preincubated for 45 mins followed by substrate addition and measured every 30 mins by multi-mode microplate reader
RAW264.7 [26] = test: Induction of apoptosis in mouse RAW264.7 cells assessed as early apoptotic cells at 1 uM after 48 hrs by Annexin V-FITC/PI based flow cytometric analysis (RVB=5.57%); format: functional
RAW264.7 [27] = test: Inhibition of colony formation in mouse RAW264.7 cells assessed as reduction in colony count at 0.1 to 1 uM incubated for 72 hrs by crystal violet staining method; format: functional, cell-based; settings: dose 0.1-1 µM
RAW264.7 [28] = test: Induction of apoptosis in mouse RAW264.7 cells assessed as necrotic cells at 1 uM after 48 hrs by Annexin V-FITC/PI based flow cytometric analysis (RVB=0.26%); format: functional

Structure (SMILES): CCc1nc2c(C)cc(-c3ccc(CN4CCN(CCO)CC4)cc3)cn2c1NC(=O)OCc1cc(Cl)cc(Cl)c1
- Activity (RAW264.7 [1]): 0.68%
- IC50 (MDA-MB-231): 3.29 µM
- Activity [2]: Toxic
- IC50 (MCF7): 3.87 µM
- Activity (RAW264.7 [3]): Dde
- IC50 (A549): 6.59 µM
- IC50 (Hep 3B2): 0.58 µM
- Activity (RAW264.7 [4]): 59.56%
- viability at 0.5 µM (RAW264.7 [5]): 90.4%
- Activity (RAW264.7 [6]): Dde
- viability at 0.25 µM (RAW264.7 [7]): 92%
- Activity (RAW264.7 [8]): 0.28%
- Activity (RAW264.7 [9]): 2.63%
- viability at 1 µM (RAW264.7 [10]): 90%
- Activity (RAW264.7 [11]): 0.74%
- Activity (RAW264.7 [12]): 14.72%
- Activity (RAW264.7 [13]): 6%
- Activity (RAW264.7 [14]): 1.03%
- Activity (RAW264.7 [15]): 25.72%
- Activity (RAW264.7 [16]): 21.13%
- Activity (RAW264.7 [17]): 7.65%
- Activity (RAW264.7 [18]): 1.73%
- Activity (RAW264.7 [19]): 4.78%
- inhibition (RAW264.7 [20]): Active
- Activity (RAW264.7 [21]): 0.44%
- Activity (RAW264.7 [22]): 7.22%
- Activity (RAW264.7 [23]): 90.16%
- inhibition (RAW264.7 [24]): Dde
- IC50 (NCI-H2228): 4.27 µM
- IC50 (RAW264.7 [25]): 0.63 µM
- IC50 (Autotaxin): 0.0034 µM
- Activity (RAW264.7 [26]): 8.43%
- inhibition (RAW264.7 [27]): Active
- Activity (RAW264.7 [28]): 0.83%
